{"source": "patent USRE45173E1", "about": "“Inhibitors of CYP 17” (Novartis AG, priority 2009, dated 2014)", "key": {"rat CYP17 lyase": {"target": "rat CYP17 lyase (Rattus norvegicus (Rat), UniProt P11715)", "sequence (P11715 whole entry)": "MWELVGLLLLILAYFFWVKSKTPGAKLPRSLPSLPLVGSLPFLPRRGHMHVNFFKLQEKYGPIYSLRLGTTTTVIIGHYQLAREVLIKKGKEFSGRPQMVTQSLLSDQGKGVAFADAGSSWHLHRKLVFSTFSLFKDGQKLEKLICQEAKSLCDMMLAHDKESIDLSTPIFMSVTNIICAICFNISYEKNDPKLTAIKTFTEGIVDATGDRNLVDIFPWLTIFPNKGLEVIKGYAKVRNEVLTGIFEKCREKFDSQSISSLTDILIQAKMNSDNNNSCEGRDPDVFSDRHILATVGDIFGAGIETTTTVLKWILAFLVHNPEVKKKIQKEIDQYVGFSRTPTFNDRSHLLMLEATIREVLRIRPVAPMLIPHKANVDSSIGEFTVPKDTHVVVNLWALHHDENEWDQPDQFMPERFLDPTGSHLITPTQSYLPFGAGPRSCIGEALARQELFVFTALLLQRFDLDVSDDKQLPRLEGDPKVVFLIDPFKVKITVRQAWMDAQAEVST", "assay": "rat CYP 17 Lyase model, rat testes microsomes as the source", "assay_type": "biochemical", "conditions": "for inhibition at 0.1 µM: 100 nM compound, read-out: rCYP17 Lyase % Inh @ 100 nM; for IC50: rat testes microsomes, substrate 0.5 μM, read-out: Lyase IC 50 nM Human/Rat (Rat)", "description": "For routine screening, the assay was set up with 16 μg of enzyme in 50 μL reaction volume. 17α-hydroxy pregnenolone [21-3H] was added to a final concentration of 0.25 μM. NADPH is used at a final concentration of 4.2 mM. Total reaction volume was made up to 50 μL with 50 mM Phosphate buffer pH 7.5. The reaction mixture was incubated at room temperature for 90 minutes with gentle shaking. The reaction was stopped by the addition of 100 μL of buffer. 500 μL of 5% freshly prepared activated charcoal was added to the solution and mixed well by vortexing. The samples were centrifuged at 17568×g for 5 minutes. (14000 rpm). The supernatant was carefully transferred to fresh tube and 1.3 mL of scintillation fluid was added, mixed by vortexing.\nThe radioactivity was measured in a 1450 MicroBeta TriLux™ scintillation counter from Wallac-Perkin Elmer®, USA. The measurements were carried out in 2.0 mL Eppendorforf™ tubes. Each tube was counted for 1 minute. The amount of tritiated acetic acid released is proportional to the lyase activity. Percent lyase activity in presence of inhibitor was calculated using the formula given below.\n[formula] • Sample: Enzyme reaction in presence of inhibitor. • Positive control: Enzyme reaction without inhibitor but containing DMSO at 1% final concentration. • Blank-Contains all reagents except enzyme. % Inhibition=100%−% Lyase activity\nFor IC50 determination, the % inhibition was plotted as a function of inhibitor concentration. The data was fitted to sigmoidal equation using Graphpad Prism® software IV to generate IC50 values.\nFor the rat CYP 17 Lyase Model:\nThe same procedure described above was used but using rat testes microsomes as the source and with a substrate concentration of 0.5 μM."}, "[1]": {"target": "recombinant human CYP17 enzyme (Homo sapiens (Human), UniProt P05093)", "sequence (P05093 whole entry)": "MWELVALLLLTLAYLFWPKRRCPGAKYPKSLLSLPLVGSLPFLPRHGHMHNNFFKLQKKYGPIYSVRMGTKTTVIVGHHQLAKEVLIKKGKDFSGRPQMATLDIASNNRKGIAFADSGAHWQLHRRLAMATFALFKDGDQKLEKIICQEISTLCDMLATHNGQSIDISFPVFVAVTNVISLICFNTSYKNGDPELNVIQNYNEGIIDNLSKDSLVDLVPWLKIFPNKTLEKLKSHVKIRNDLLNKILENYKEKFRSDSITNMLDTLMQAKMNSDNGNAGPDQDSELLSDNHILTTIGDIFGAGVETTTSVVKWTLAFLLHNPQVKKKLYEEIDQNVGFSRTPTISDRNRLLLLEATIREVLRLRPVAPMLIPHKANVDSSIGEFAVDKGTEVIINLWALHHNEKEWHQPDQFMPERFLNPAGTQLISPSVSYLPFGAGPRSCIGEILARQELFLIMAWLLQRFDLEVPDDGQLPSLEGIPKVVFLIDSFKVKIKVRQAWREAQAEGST", "assay": "Cytochrome P450, 17-20 lyase (CYP17-lyase) assay, tritiated acetic acid release from 17-α-hydroxy pregnenolone [21-3H]", "assay_type": "biochemical", "conditions": "human CYP17, substrate 0.25 μM; read-out: Lyase IC 50 nM Human/Rat (Human)", "summary_of_the_method": "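Membranes of cells expressing human CYP17 incubated 90 min at room temperature with [21-3H]17α-hydroxypregnenolone and 4.2 mM NADPH in 50 mM phosphate pH 7.5. Released tritiated acetic acid separated from steroids by charcoal and counted by scintillation; IC50 from sigmoidal fit of % inhibition.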"}}}
{"smiles": "Cc1ccncc1N1CCN(c2ccc3[nH]ncc3c2)C1=O", "note": "[Example 28A, 1-(1H-Indazol-5-yl)-3-(4-methyl-pyridin-3-yl)-imidazolidin-2-one]", "values": [{"measurement": "inhibition at 0.1 µM", "setting": "rat CYP17 lyase", "result": 61, "unit": "%"}, {"measurement": "IC50", "setting": "rat CYP17 lyase", "result": 52, "unit": "nM"}, {"measurement": "IC50", "setting": "[1]", "result": 4, "unit": "nM"}]}
{"smiles": "O=C1N(c2cccnc2)CCN1c1ccc2ncsc2c1", "note": "[Example 4A, 1-Benzothiazol-6-yl-3-pyridin-3-yl-imidazolidin-2-one]", "values": [{"measurement": "inhibition at 0.1 µM", "setting": "rat CYP17 lyase", "result": 59, "unit": "%"}, {"measurement": "IC50", "setting": "[1]", "result": 77, "unit": "nM"}]}
{"smiles": "Cc1ccncc1N1CCN(c2cnc3ccccc3c2)C1=O", "note": "[Example 24A, 1-(4-Methyl-pyridin-3-yl)-3-quinolin-3-yl-imidazolidin-2-one]", "values": [{"measurement": "inhibition at 0.1 µM", "setting": "rat CYP17 lyase", "result": 98, "unit": "%"}, {"measurement": "IC50", "setting": "[1]", "result": 72, "unit": "nM"}]}
{"smiles": "Cc1ccncc1N1CCN(c2cc3ccccc3s2)C1=O", "note": "[Example 26A, 1-Benzo[b]thiophen-2-yl-3-(4-methyl-pyridin-3-yl)-imidazolidin-2-one]", "values": [{"measurement": "inhibition at 0.1 µM", "setting": "rat CYP17 lyase", "result": 100, "unit": "%"}, {"measurement": "IC50", "setting": "[1]", "result": 15, "unit": "nM"}]}
{"smiles": "COc1cc(N2CCN(c3cnccc3C)C2=O)ccn1", "note": "[Example 72A, 1-(2-Methoxy-pyridin-4-yl)-3-(4-methyl-pyridin-3-yl)-imidazolidin-2-one]", "values": [{"measurement": "IC50", "setting": "rat CYP17 lyase", "result": 10, "unit": "nM"}, {"measurement": "IC50", "setting": "[1]", "result": 9.4, "unit": "nM"}]}
{"smiles": "Cc1ccncc1N1CCN(c2ccc3c(C)n[nH]c3c2)C1=O", "note": "[Example 102A, 1-(3-Methyl-1H-indazol-6-yl)-3-(4-methyl-pyridin-3-yl)-imidazolidin-2-one]", "values": [{"measurement": "IC50", "setting": "rat CYP17 lyase", "result": 5, "unit": "nM"}, {"measurement": "IC50", "setting": "[1]", "result": 7.5, "unit": "nM"}]}
{"smiles": "COc1ccncc1N1CCN(c2ccc3ncsc3c2)C1=O", "note": "[Example 124A, 1-Benzothiazol-6-yl-3-(4-methoxy-pyridin-3-yl)-imidazolidin-2-one]", "values": [{"measurement": "IC50", "setting": "rat CYP17 lyase", "result": 12, "unit": "nM"}, {"measurement": "IC50", "setting": "[1]", "result": 23, "unit": "nM"}]}
{"smiles": "O=C1N(c2cccnc2)CCN1c1ccc2ccccc2c1", "note": "[Example 1A, 1-Naphthalen-2-yl-3-pyridin-3-yl-imidazolidin-2-one]", "values": [{"measurement": "inhibition at 0.1 µM", "setting": "rat CYP17 lyase", "result": 84, "unit": "%"}, {"measurement": "IC50", "setting": "rat CYP17 lyase", "result": 35, "unit": "nM"}, {"measurement": "IC50", "setting": "[1]", "result": 34, "unit": "nM"}]}
{"smiles": "Cc1ccncc1N1CCN(c2ccc3ccccc3c2)C1=O", "note": "[Example 14A, 1-(4-Methyl-pyridin-3-yl)-3-naphthalen-2-yl-imidazolidin-2-one]", "values": [{"measurement": "inhibition at 0.1 µM", "setting": "rat CYP17 lyase", "result": 102, "unit": "%"}, {"measurement": "IC50", "setting": "rat CYP17 lyase", "result": 2, "unit": "nM"}, {"measurement": "IC50", "setting": "[1]", "result": 17, "unit": "nM"}]}
{"smiles": "Cc1ccncc1N1CCN(c2ccc3occ(C)c3c2)C1=O", "note": "[Example 29A, 1-(3-Methyl-benzofuran-5-yl)-3-(4-methyl-pyridin-3-yl)-imidazolidin-2-one]", "values": [{"measurement": "inhibition at 0.1 µM", "setting": "rat CYP17 lyase", "result": 98, "unit": "%"}, {"measurement": "IC50", "setting": "[1]", "result": 3, "unit": "nM"}]}
{"smiles": "Cc1ccncc1N1CCN(c2ccc3ncsc3c2)C1=O", "note": "[Example 16A, 1-Benzothiazol-6-yl-3-(4-methyl-pyridin-3-yl)-imidazolidin-2-one]", "values": [{"measurement": "inhibition at 0.1 µM", "setting": "rat CYP17 lyase", "result": 94, "unit": "%"}, {"measurement": "IC50", "setting": "rat CYP17 lyase", "result": 5, "unit": "nM"}, {"measurement": "IC50", "setting": "[1]", "result": 6, "unit": "nM"}]}
{"smiles": "CC(O)c1ccncc1N1CCN(c2ccc3ncsc3c2)C1=O", "note": "(stereo not drawn) [Example 195A, 1-Benzothiazol-6-yl-3-[4-(1-hydroxyethyl)-pyridin-3-yl]-imidazolidin-2-one]", "values": [{"measurement": "inhibition at 0.1 µM", "setting": "rat CYP17 lyase", "result": 8, "unit": "%"}]}
{"smiles": "Cc1ccncc1N1CCN(c2ccc3ccccc3n2)C1=O", "note": "[Example 23A, 1-(4-Methyl-pyridin-3-yl)-3-quinolin-2-yl-imidazolidin-2-one]", "values": [{"measurement": "inhibition at 0.1 µM", "setting": "rat CYP17 lyase", "result": 85, "unit": "%"}, {"measurement": "IC50", "setting": "rat CYP17 lyase", "result": 20, "unit": "nM"}]}
{"smiles": "COc1ccc2cc(N3CCN(c4cnccc4C)C3=O)ccc2c1", "note": "[Example 25A, 1-(6-Methoxy-naphthalen-2-yl)-3-(4-methyl-pyridin-3-yl)-imidazolidin-2-one]", "values": [{"measurement": "inhibition at 0.1 µM", "setting": "rat CYP17 lyase", "result": 89, "unit": "%"}]}
{"smiles": "Cc1ccncc1N1CCN(c2ccc3[nH]c(=O)cc(C)c3c2)C1=O", "note": "[Example 22A, 4-Methyl-6-[3-(4-methyl-pyridin-3-yl)-2-oxo-imidazolodin-1yl]1H-quinolin-2-one]", "values": [{"measurement": "inhibition at 0.1 µM", "setting": "rat CYP17 lyase", "result": 85, "unit": "%"}, {"measurement": "IC50", "setting": "rat CYP17 lyase", "result": 24, "unit": "nM"}]}
{"smiles": "Cc1ccncc1N1CCN(c2ccc3nc(Cl)cc(C)c3c2)C1=O", "note": "[Example 21A, 1-(2-Chloro-4-methyl-quinolin-6-yl)-3-(4-methyl-pyridin-3-yl)-imidazolidin-2-one]", "values": [{"measurement": "inhibition at 0.1 µM", "setting": "rat CYP17 lyase", "result": 98, "unit": "%"}, {"measurement": "IC50", "setting": "rat CYP17 lyase", "result": 5, "unit": "nM"}]}
{"smiles": "COc1cncc(N2CCN(c3cnccc3C)C2=O)c1", "note": "[Example 32A, 1-(5-Methoxy-pyridin-3-yl)-3-(4-methyl-pyridin-3-yl)-imidazolidin-2-one]", "values": [{"measurement": "inhibition at 0.1 µM", "setting": "rat CYP17 lyase", "result": 73, "unit": "%"}]}
{"smiles": "O=C1N(c2cccnc2)CCN1c1ccc2c(c1)CC/C2=N\\O", "note": "[Example 12A]", "values": [{"measurement": "inhibition at 0.1 µM", "setting": "rat CYP17 lyase", "result": 17, "unit": "%"}]}
